Experimental data reported in patent US11739098B2 (BRISTOL-MYERS SQUIBB COMPANY, priority 2017, dated 2023).

What was measured:
Assay type in all cases: cell-based
[1] = target: T1, human TLR7 (Homo sapiens, UniProt Q9NYK1); assay: TLR7 inhibition reporter assay (HEK-Blue cells, SEAP reporter, gardiquimod stimulation); details: HEK-Blue cells overexpressing human TLR7, SEAP reporter, gardiquimod 7.5 μM
T1 construct: host or cells: HEK-Blue cells (HEK293-derived reporter line)
T1 sequence (Q9NYK1 27-1049): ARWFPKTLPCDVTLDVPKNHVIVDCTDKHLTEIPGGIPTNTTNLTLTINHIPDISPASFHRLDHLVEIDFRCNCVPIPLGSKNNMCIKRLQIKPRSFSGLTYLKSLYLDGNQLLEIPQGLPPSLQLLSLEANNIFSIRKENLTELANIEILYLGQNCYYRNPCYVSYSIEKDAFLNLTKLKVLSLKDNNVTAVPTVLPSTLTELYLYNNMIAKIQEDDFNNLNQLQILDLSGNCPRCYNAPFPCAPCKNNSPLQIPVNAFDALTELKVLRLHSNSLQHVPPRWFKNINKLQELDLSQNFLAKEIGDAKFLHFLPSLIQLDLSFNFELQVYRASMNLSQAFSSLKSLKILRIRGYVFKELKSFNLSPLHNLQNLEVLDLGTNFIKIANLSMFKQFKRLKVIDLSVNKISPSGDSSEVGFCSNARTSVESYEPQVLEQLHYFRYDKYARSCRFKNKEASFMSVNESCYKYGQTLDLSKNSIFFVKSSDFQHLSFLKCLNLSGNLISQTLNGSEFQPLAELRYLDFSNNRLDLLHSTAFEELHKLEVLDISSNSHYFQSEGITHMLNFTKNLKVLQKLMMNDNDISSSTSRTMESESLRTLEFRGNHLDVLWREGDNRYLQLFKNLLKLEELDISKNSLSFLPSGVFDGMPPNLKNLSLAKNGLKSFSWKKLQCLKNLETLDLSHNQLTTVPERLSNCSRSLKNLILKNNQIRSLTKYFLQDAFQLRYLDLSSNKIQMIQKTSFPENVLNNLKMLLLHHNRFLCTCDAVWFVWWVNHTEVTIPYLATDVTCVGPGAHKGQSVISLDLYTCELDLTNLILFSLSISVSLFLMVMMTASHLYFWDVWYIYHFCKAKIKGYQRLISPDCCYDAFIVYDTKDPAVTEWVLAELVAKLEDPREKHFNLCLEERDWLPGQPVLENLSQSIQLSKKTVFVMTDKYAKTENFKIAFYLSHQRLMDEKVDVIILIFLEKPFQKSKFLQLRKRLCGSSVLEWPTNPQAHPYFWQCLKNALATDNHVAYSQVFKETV
In short: (§1)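 Agonists (final): TLR7 gardiquimod 7.5 μM; TLR8 R848 15.9 μM; TLR9 ODN2006 5 nM. HEK-Blue reporter cells, 30 min RT compound pre-incubation, 0.05 nM–50 μM dose range, 22 h at 37 °C, colorimetric SEAP detection medium. % inhibition relative to agonist+DMSO and known-inhibitor wells.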

[2] = target: T2, human TLR8 (Homo sapiens, UniProt Q9NR97); assay: TLR8 inhibition reporter assay (HEK-Blue cells, SEAP reporter, R848 stimulation); details: HEK-Blue cells overexpressing human TLR8, SEAP reporter, R848 15.9 μM
T2 construct: host or cells: HEK-Blue cells (HEK293-derived reporter line)
T2 sequence (Q9NR97 27-1041): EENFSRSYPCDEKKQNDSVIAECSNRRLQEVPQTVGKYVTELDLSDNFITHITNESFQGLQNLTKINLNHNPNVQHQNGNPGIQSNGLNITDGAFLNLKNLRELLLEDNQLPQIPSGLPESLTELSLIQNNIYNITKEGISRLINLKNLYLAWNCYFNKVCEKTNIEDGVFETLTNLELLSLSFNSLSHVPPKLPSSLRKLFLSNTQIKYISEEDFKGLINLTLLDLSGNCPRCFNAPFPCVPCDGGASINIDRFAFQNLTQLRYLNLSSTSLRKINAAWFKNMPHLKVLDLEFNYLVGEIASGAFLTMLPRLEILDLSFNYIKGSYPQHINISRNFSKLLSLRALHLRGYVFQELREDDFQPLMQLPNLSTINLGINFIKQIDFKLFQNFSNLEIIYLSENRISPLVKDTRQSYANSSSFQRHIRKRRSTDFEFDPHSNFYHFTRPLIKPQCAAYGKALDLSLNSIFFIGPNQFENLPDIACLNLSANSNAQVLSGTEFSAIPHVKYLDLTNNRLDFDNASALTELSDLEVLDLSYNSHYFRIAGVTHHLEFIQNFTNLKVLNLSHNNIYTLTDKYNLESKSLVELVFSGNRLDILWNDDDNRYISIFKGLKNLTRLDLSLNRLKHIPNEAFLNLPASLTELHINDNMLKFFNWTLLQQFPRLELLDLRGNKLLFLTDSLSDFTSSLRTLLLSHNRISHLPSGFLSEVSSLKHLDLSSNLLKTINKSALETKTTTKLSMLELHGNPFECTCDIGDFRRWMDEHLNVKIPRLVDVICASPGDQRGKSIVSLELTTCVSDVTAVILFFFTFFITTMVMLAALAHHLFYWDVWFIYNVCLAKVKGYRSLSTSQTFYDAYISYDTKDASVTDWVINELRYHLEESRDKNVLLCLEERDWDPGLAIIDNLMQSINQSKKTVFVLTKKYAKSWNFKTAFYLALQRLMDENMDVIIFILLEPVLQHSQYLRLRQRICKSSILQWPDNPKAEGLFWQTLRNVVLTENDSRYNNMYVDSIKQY
In short: as §1

[3] = target: T3, human TLR9 (Homo sapiens, UniProt Q9NR96); assay: TLR9 inhibition reporter assay (HEK-Blue cells, SEAP reporter, ODN2006 stimulation); details: HEK-Blue cells overexpressing human TLR9, SEAP reporter, ODN2006 5 nM
T3 construct: host or cells: HEK-Blue cells (HEK293-derived reporter line)
T3 sequence (Q9NR96 26-1032): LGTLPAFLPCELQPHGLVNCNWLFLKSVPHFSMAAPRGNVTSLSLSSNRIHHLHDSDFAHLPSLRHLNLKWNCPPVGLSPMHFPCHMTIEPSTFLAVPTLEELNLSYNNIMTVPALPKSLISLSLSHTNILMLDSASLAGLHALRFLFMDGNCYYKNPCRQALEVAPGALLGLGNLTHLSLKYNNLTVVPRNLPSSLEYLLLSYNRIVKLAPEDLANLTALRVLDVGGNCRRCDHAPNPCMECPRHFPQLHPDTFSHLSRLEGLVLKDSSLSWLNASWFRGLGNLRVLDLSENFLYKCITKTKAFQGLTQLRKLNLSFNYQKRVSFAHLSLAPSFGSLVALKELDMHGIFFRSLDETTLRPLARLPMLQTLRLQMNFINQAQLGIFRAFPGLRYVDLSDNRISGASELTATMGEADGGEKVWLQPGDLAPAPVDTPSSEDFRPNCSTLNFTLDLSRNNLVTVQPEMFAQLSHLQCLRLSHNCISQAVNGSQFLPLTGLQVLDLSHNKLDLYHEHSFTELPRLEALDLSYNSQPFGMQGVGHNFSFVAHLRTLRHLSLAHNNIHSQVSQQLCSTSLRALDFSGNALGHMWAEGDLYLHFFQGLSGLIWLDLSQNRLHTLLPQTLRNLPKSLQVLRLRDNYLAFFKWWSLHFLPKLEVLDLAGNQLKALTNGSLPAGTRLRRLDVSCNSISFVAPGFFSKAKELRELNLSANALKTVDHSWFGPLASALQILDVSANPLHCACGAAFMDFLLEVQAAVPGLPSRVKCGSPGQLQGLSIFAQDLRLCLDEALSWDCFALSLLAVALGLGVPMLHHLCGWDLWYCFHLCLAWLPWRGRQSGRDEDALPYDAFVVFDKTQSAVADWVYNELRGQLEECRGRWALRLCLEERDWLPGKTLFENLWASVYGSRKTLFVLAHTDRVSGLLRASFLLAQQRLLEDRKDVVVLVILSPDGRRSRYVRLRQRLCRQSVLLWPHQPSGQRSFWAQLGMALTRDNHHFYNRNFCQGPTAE
In short: as §1

Structure (SMILES)	IC50 [1]	IC50 [2]	IC50 [3]
CC(C)c1c(-c2cn3cnnc3c(O)n2)[nH]c2ccc(C3CCNCC3)cc12 [Example 34, 6-(3-isopropyl-5-(piperidin-4-yl)-1H-indol-2-yl)-[1,2,4]triazolo[4,3-a]pyrazin-8-ol]	1000 to 50000 nM	> 3130 nM	1000 to 50000 nM
Cc1cn2c(C)c(-c3[nH]c4ccc(C5CCNCC5)cc4c3C(C)C)ccc2n1 [Example 123, 6-(3-isopropyl-5-(piperidin-4-yl)-1H-indol-2-yl)-2,5-dimethylimidazo[1,2-a]pyridine]	< 100 nM	100 to 1000 nM	100 to 1000 nM
CC(C)c1c(-c2cnc3[nH]nc(N)c3c2)[nH]c2ccc(C3CCNCC3)cc12 [Example 99, 5-(3-isopropyl-5-(piperidin-4-yl)-1H-indol-2-yl)-1H-pyrazolo[3,4-b]pyridin-3-amine]	100 to 1000 nM	100 to 1000 nM	1000 to 50000 nM
Cc1cc(-c2[nH]c3ccc(C4CCNCC4)cc3c2C(C)C)cc2cncn12 [Example 164, 7-(3-isopropyl-5-(piperidin-4-yl)-1H-indol-2-yl)-5-methylimidazo[1,5-a]pyridine]	< 100 nM	< 100 nM	100 to 1000 nM
Cc1nc2cc(-c3[nH]c4ccc(C5CCN(C(=O)[C@@H]6C[C@@H](O)CN6)CC5)cc4c3C(C)C)ccn2n1 [Example 540, ((2S,4R)-4-hydroxypyrrolidin-2-yl)(4-(3-isopropyl-2-(2-methyl-[1,2,4]triazolo[1,5-a]pyridin-7-yl)-1H-indol-5-yl)piperidin-1-yl) methanone]	< 100 nM	1000 to 50000 nM	1000 to 50000 nM
CNC(=O)CN1CCC(c2ccc3[nH]c(-c4cnc5c(cnn5C)c4)c(C(C)C)c3c2)CC1 [Example 366, 2-(4-(3-isopropyl-2-(1-methyl-1H-pyrazolo[3,4-b]pyridin-5-yl)-1H-indol-5-yl)piperidin-1-yl)-N-methylacetamide]	< 100 nM	< 100 nM	1000 to 50000 nM
CC(C)c1c(-c2cc(F)c3nccn3c2)[nH]c2ccc(C3CCN(CC(=O)N(C)C)CC3)cc12 [Example 408, 2-(4-(2-(8-fluoroimidazo[1,2-5a]pyridin-6-yl)-3-isopropyl-1H-indol-5-yl)piperidin-1-yl)-N,N-dimethylacetamide]	< 100 nM	100 to 1000 nM	1000 to 50000 nM
Cc1c(-c2[nH]c3ccc(C4CCN(C(=O)CCN5CCOCC5)CC4)cc3c2C(C)C)cn2nnnc2c1C [Example 619, 1-(4-(2-(7,8-dimethyltetrazolo[1,5-a]pyridin-6-yl)-3-isopropyl-1H-indol-5-yl)piperidin-1-yl)-3-morpholinopropan-1-one]	< 100 nM	< 100 nM	1000 to 50000 nM
Cc1cc(-c2[nH]c3ccc(C4CCN(CC(=O)N(C)C)CC4)cc3c2C(C)C)cn2cc(C(=O)N(C)CCO)nc12 [Example 344, 6-(5-(1-(2-(dimethylamino)-2-oxoethyl)piperidin-4-yl)-3-isopropyl-1H-indol-2-yl)-N-(2-hydroxyethyl)-N,8-dimethylimidazo[1,2-a]pyridine-2-carboxamide]	< 100 nM	< 100 nM	1000 to 50000 nM
Fc1cc(-c2[nH]c3ccc(C4CCNCC4)cc3c2CC(F)F)cn2ccnc12 [Example 131, 6-(3-(2,2-difluoroethyl)-5-(piperidin-4-yl)-1H-indol-2-yl)-8-fluoroimidazo[1,2-a] pyridine]	< 100 nM	100 to 1000 nM	100 to 1000 nM

Results, then the compound that gave them:

IC50 [1]	IC50 [2]	IC50 [3]	Structure (SMILES)
< 100 nM	< 100 nM	100 to 1000 nM	Cc1cc(-c2[nH]c3ccc(C4CCN(C(=O)CCN5CC6(COC6)C5)CC4)cc3c2C(C)C)cn2nnnc12 [Example 631, 1-(4-(3-isopropyl-2-(8-methyltetrazolo[1,5-a]pyridin-6-yl)-1H-indol-5-yl)piperidin-1-yl)-3-(2-oxa-6-azaspiro[3.3]heptan-6-yl)propan-1-one]
100 to 1000 nM	< 100 nM	100 to 1000 nM	CC(C)c1c(-c2ccc3cnnn3c2)[nH]c2ccc(C3CCN(C4CCOCC4)CC3)cc12 [Example 695, 6-(3-isopropyl-5-(1-(tetrahydro-2H-pyran-4-yl)piperidin-4-yl)-1H-indol-2-yl)-[1,2,3]triazolo[1,5-a]pyridine]
< 100 nM	< 100 nM	1000 to 50000 nM	Cc1cc(-c2[nH]c3ccc(C4CCN(C(=O)CCN5CCC(F)CC5)CC4)cc3c2C(C)C)cn2nnnc12 [Example 633, 3-(4-fluoropiperidin-1-yl)-1-(4-(3-isopropyl-2-(8-methyltetrazolo[1,5-a]pyridin-6-yl)-1H-ndol-5-yl)piperidin-1-yl)propan-1-one]
< 100 nM	< 100 nM	100 to 1000 nM	CC(C)c1c(-c2ccc3nccn3c2)[nH]c2ccc(C3CCN(C4CCN(C(C)C)CC4)CC3)cc12 [Example 803, 6-(3-isopropyl-5-(1′-isopropyl-[1,4′-bipiperidin]-4-yl)-1H-indol-2-yl)imidazo[1,2-a]pyridine]
